In ChEMBL document CHEMBL4265925, “Synthesis of 5H-pyrido[3,2-b]pyrrolizin-5-one tripentone analogs with antitumor activity” (Eur J Med Chem, 2018):
Active and inactive are the calls of the source. The calls are words filed in the database; no cut-off is given here.

Legend:
[1] = Inhibition of sheep brain tubulin polymerization incubated at 37 degreeC for 10 mins followed by incubated at 0 degreeC for 5 mins; parameters: species or system Ovis aries
HCT-116 [2] = assay: Antiproliferative activity against human HCT116 cells after 72 hrs by MTT assay; assay type: functional, cell-based; details: HCT-116, 72 h
MCF7 [3] = assay: Antiproliferative activity against human MCF7 cells after 72 hrs by MTT assay; assay type: functional, cell-based; details: MCF7, 72 h
Caco-2 = assay: Cytotoxicity against human Caco2 cells assessed as reduction in cell viability at 1 to 10 uM after 72 hrs by MTT assay; assay type: cell-based; details: caco-2, 72 h
MCF7 [4] = assay: Induction of apoptosis in human MCF7 cells assessed as early apoptotic cells at 2 uM measured after 48 hrs by Annexin-V-FITC/propidium iodide staining based flow cytometric method (reference value: 0.1%); assay type: functional
MCF7 [5] = assay: Induction of apoptosis in human MCF7 cells assessed as late apoptotic cells at 2 uM measured after 48 hrs by Annexin-V-FITC/propidium iodide staining based flow cytometric method (reference value: 0%); assay type: functional
MCF7 [6] = assay: Induction of apoptosis in human MCF7 cells assessed as necrotic cells at 2 uM measured after 48 hrs by Annexin-V-FITC/propidium iodide staining based flow cytometric method (reference value: 0%); assay type: functional
MCF7 [7] = assay: Induction of apoptosis in human MCF7 cells assessed as viable cells at 2 uM measured after 48 hrs by Annexin-V-FITC/propidium iodide staining based flow cytometric method (reference value: 99.9%); assay type: functional; details: MCF7, 48 h, read-out: Activity
HCT-116 [8] = assay: Induction of apoptosis in human HCT116 cells assessed as early apoptotic cells at 0.2 uM measured after 48 hrs by Annexin-V-FITC/propidium iodide staining based flow cytometric method (reference value: 0.4%); assay type: functional
HCT-116 [9] = assay: Induction of apoptosis in human HCT116 cells assessed as late apoptotic cells at 0.2 uM measured after 48 hrs by Annexin-V-FITC/propidium iodide staining based flow cytometric method (reference value: 0%); assay type: functional
HCT-116 [10] = assay: Induction of apoptosis in human HCT116 cells assessed as necrotic cells at 0.2 uM measured after 48 hrs by Annexin-V-FITC/propidium iodide staining based flow cytometric method (reference value: 0%); assay type: functional
HCT-116 [11] = assay: Induction of apoptosis in human HCT116 cells assessed as viable cells at 0.2 uM measured after 48 hrs by Annexin-V-FITC/propidium iodide staining based flow cytometric method (reference value: 99.6%); assay type: functional; details: HCT-116, 48 h, read-out: Activity
MCF7 [12] = assay: Cell cycle arrest in human MCF7 cells assessed as increase in accumulation at subG0/G1 phase at 2 uM after 48 hrs by propidium iodide/RNase staining based FACS analysis; assay type: functional
HCT-116 [13] = assay: Cell cycle arrest human HCT116 cells assessed as increase in accumulation at subG0/G1 phase at 0.2 uM after 48 hrs by propidium iodide/RNase staining based FACS analysis; assay type: functional
MCF7 [14] = assay: Cell cycle arrest in human MCF7 cells assessed as increase in accumulation at G2/M phase at 2 uM after 48 hrs by propidium iodide/RNase staining based FACS analysis; assay type: functional
HCT-116 [15] = assay: Cell cycle arrest human HCT116 cells assessed as increase in accumulation at G2/M phase at 0.2 uM after 48 hrs by propidium iodide/RNase staining based FACS analysis; assay type: functional
MCF7 [16] = assay: Cell cycle arrest in human MCF7 cells assessed as decrease in accumulation at G1 phase at 2 uM after 48 hrs by propidium iodide/RNase staining based FACS analysis; assay type: functional
HCT-116 [17] = assay: Cell cycle arrest human HCT116 cells assessed as decrease in accumulation at G1 phase at 0.2 uM after 48 hrs by propidium iodide/RNase staining based FACS analysis; assay type: functional
MCF7 [18] = assay: Cell cycle arrest in human MCF7 cells assessed as decrease in accumulation at S phase at 2 uM after 48 hrs by propidium iodide/RNase staining based FACS analysis; assay type: functional
HCT-116 [19] = assay: Cell cycle arrest human HCT116 cells assessed as decrease in accumulation at S phase at 0.2 uM after 48 hrs by propidium iodide/RNase staining based FACS analysis; assay type: functional
Sus scrofa [20] = species: Sus scrofa; assay: Inhibition of porcine brain tubulin polymerization at 25 uM measured every 20 secs for 60 mins
Sus scrofa [21] = species: Sus scrofa; assay: Induction of porcine brain tubulin polymerization at 10 uM measured every 20 secs for 60 mins
HCT-116 [22] = assay: Induction of apoptosis in human HCT116 cells assessed as early apoptotic cells at 0.3 uM measured after 48 hrs by Annexin-V-FITC/propidium iodide staining based flow cytometric method (reference value: 0.4%); assay type: functional
HCT-116 [23] = assay: Induction of apoptosis in human HCT116 cells assessed as late apoptotic cells at 0.3 uM measured after 48 hrs by Annexin-V-FITC/propidium iodide staining based flow cytometric method (reference value: 0%); assay type: functional
HCT-116 [24] = assay: Induction of apoptosis in human HCT116 cells assessed as necrotic cells at 0.3 uM measured after 48 hrs by Annexin-V-FITC/propidium iodide staining based flow cytometric method (reference value: 0%); assay type: functional
HCT-116 [25] = assay: Induction of apoptosis in human HCT116 cells assessed as viable cells at 0.3 uM measured after 48 hrs by Annexin-V-FITC/propidium iodide staining based flow cytometric method (reference value: 99.6%); assay type: functional; details: HCT-116, 48 h, read-out: Activity
HCT-116 [26] = assay: Cell cycle arrest human HCT116 cells assessed as increase in accumulation at subG0/G1 phase at 0.3 uM after 48 hrs by propidium iodide/RNase staining based FACS analysis; assay type: functional
HCT-116 [27] = assay: Cell cycle arrest human HCT116 cells assessed as increase in accumulation at G2/M phase at 0.3 uM after 48 hrs by propidium iodide/RNase staining based FACS analysis; assay type: functional
HCT-116 [28] = assay: Cell cycle arrest human HCT116 cells assessed as decrease in accumulation at G1 phase at 0.3 uM after 48 hrs by propidium iodide/RNase staining based FACS analysis; assay type: functional
HCT-116 [29] = assay: Cell cycle arrest human HCT116 cells assessed as decrease in accumulation at S phase at 0.3 uM after 48 hrs by propidium iodide/RNase staining based FACS analysis; assay type: functional
MCF7 [30] = assay: Induction of apoptosis in human MCF7 cells assessed as early apoptotic cells at 3 uM measured after 48 hrs by Annexin-V-FITC/propidium iodide staining based flow cytometric method (reference value: 0.1%); assay type: functional
MCF7 [31] = assay: Induction of apoptosis in human MCF7 cells assessed as late apoptotic cells at 3 uM measured after 48 hrs by Annexin-V-FITC/propidium iodide staining based flow cytometric method (reference value: 0%); assay type: functional
MCF7 [32] = assay: Induction of apoptosis in human MCF7 cells assessed as necrotic cells at 3 uM measured after 48 hrs by Annexin-V-FITC/propidium iodide staining based flow cytometric method (reference value: 0%); assay type: functional
MCF7 [33] = assay: Induction of apoptosis in human MCF7 cells assessed as viable cells at 3 uM measured after 48 hrs by Annexin-V-FITC/propidium iodide staining based flow cytometric method (reference value: 99.9%); assay type: functional; details: MCF7, 48 h, read-out: Activity
HCT-116 [34] = assay: Induction of apoptosis in human HCT116 cells assessed as early apoptotic cells at 0.1 uM measured after 48 hrs by Annexin-V-FITC/propidium iodide staining based flow cytometric method (reference value: 0.4%); assay type: functional
HCT-116 [35] = assay: Induction of apoptosis in human HCT116 cells assessed as late apoptotic cells at 0.1 uM measured after 48 hrs by Annexin-V-FITC/propidium iodide staining based flow cytometric method (reference value: 0%); assay type: functional
HCT-116 [36] = assay: Induction of apoptosis in human HCT116 cells assessed as necrotic cells at 0.1 uM measured after 48 hrs by Annexin-V-FITC/propidium iodide staining based flow cytometric method (reference value: 0%); assay type: functional
HCT-116 [37] = assay: Induction of apoptosis in human HCT116 cells assessed as viable cells at 0.1 uM measured after 48 hrs by Annexin-V-FITC/propidium iodide staining based flow cytometric method (reference value: 99.6%); assay type: functional; details: HCT-116, 48 h, read-out: Activity
MCF7 [38] = assay: Cell cycle arrest in human MCF7 cells assessed as increase in accumulation at subG0/G1 phase at 3 uM after 48 hrs by propidium iodide/RNase staining based FACS analysis; assay type: functional
HCT-116 [39] = assay: Cell cycle arrest human HCT116 cells assessed as increase in accumulation at subG0/G1 phase at 0.1 uM after 48 hrs by propidium iodide/RNase staining based FACS analysis; assay type: functional
MCF7 [40] = assay: Cell cycle arrest in human MCF7 cells assessed as increase in accumulation at G2/M phase at 3 uM after 48 hrs by propidium iodide/RNase staining based FACS analysis; assay type: functional
HCT-116 [41] = assay: Cell cycle arrest human HCT116 cells assessed as increase in accumulation at G2/M phase at 0.1 uM after 48 hrs by propidium iodide/RNase staining based FACS analysis; assay type: functional
MCF7 [42] = assay: Cell cycle arrest in human MCF7 cells assessed as decrease in accumulation at G1 phase at 3 uM after 48 hrs by propidium iodide/RNase staining based FACS analysis; assay type: functional
HCT-116 [43] = assay: Cell cycle arrest human HCT116 cells assessed as decrease in accumulation at G1 phase at 0.1 uM after 48 hrs by propidium iodide/RNase staining based FACS analysis; assay type: functional
MCF7 [44] = assay: Cell cycle arrest in human MCF7 cells assessed as decrease in accumulation at S phase at 3 uM after 48 hrs by propidium iodide/RNase staining based FACS analysis; assay type: functional
HCT-116 [45] = assay: Cell cycle arrest human HCT116 cells assessed as decrease in accumulation at S phase at 0.1 uM after 48 hrs by propidium iodide/RNase staining based FACS analysis; assay type: functional

COc1ccc(-c2csc3c2-n2cccc2C3=O)cc1O
IC50 [1]: 2900 nM

O=C(N/N=C1/c2cc(Br)cnc2-n2cccc21)c1ccc(O)cc1
IC50 (HCT-116 [2]): 1660 nM | IC50 (MCF7 [3]): 15600 nM | Activity (Caco-2): Non-Toxic

O=C(N/N=C1/c2cc(Br)cnc2-n2cccc21)c1ccccc1
IC50 (HCT-116 [2]): 1740 nM | IC50 (MCF7 [3]): 14900 nM | Activity (Caco-2): Non-Toxic

O=C(N/N=C1/c2ncccc2-n2cccc21)c1ccccc1
GI50 (HCT-116 [2]): 4250 nM | GI50 (MCF7 [3]): 20700 nM

O=C(N/N=C1/c2cc(Br)cnc2-n2cccc21)c1ccco1
IC50 (HCT-116 [2]): 170 nM | IC50 (MCF7 [3]): 1610 nM | Activity (Caco-2): Non-Toxic | Activity (MCF7 [4]): 21.8% | Activity (MCF7 [5]): 0% | Activity (MCF7 [6]): 0% | viability at 2 µM (MCF7 [7]): 78.2% | Activity (HCT-116 [8]): 31.5% | Activity (HCT-116 [9]): 0% | Activity (HCT-116 [10]): 0% | viability at 0.2 µM (HCT-116 [11]): 68.4% | Activity (MCF7 [12]): Active | Activity (HCT-116 [13]): Active | Activity (MCF7 [14]): Active | Activity (HCT-116 [15]): Active | Activity (MCF7 [16]): Active | Activity (HCT-116 [17]): Active | Activity (MCF7 [18]): Active | Activity (HCT-116 [19]): Active | inhibition (Sus scrofa [20]): inactive

CC(=O)O[C@H]1C(=O)[C@@]2(C)[C@H]([C@H](OC(=O)c3ccccc3)[C@]3(O)C[C@H](OC(=O)[C@H](O)[C@@H](NC(=O)c4ccccc4)c4ccccc4)C(C)=C1C3(C)C)[C@]1(OC(C)=O)CO[C@@H]1C[C@@H]2O
Activity (Sus scrofa [21]): Active

O=C(N/N=C1/c2cccnc2-n2cccc21)c1cccs1
IC50 (HCT-116 [2]): 460 nM | IC50 (MCF7 [3]): 3150 nM | Activity (Caco-2): Non-Toxic

O=C(N/N=C1/c2cccnc2-n2cccc21)c1ccc(O)cc1
IC50 (HCT-116 [2]): 2540 nM | IC50 (MCF7 [3]): 16100 nM | Activity (Caco-2): Non-Toxic

Nc1ccc(C(=O)N/N=C2/c3cc(Br)cnc3-n3cccc32)cc1
IC50 (HCT-116 [2]): 230 nM | IC50 (MCF7 [3]): 1800 nM | Activity (Caco-2): Non-Toxic | Activity (MCF7 [4]): 24.8% | Activity (MCF7 [5]): 0% | Activity (MCF7 [6]): 0% | viability at 2 µM (MCF7 [7]): 75.2% | Activity (HCT-116 [22]): 32.9% | Activity (HCT-116 [23]): 0% | Activity (HCT-116 [24]): 0% | viability at 0.3 µM (HCT-116 [25]): 67% | Activity (MCF7 [12]): Active | Activity (HCT-116 [26]): Active | Activity (MCF7 [14]): Active | Activity (HCT-116 [27]): Active | Activity (MCF7 [16]): Active | Activity (HCT-116 [28]): Active | Activity (MCF7 [18]): Active | Activity (HCT-116 [29]): Active | inhibition (Sus scrofa [20]): inactive

O=C(N/N=C1/c2cc(Br)cnc2-n2cccc21)c1ccncc1
IC50 (HCT-116 [2]): 110 nM | IC50 (MCF7 [3]): 3400 nM | Activity (Caco-2): Non-Toxic | Activity (MCF7 [30]): 24% | Activity (MCF7 [31]): 0% | Activity (MCF7 [32]): 0% | viability at 3 µM (MCF7 [33]): 76% | Activity (HCT-116 [34]): 26.7% | Activity (HCT-116 [35]): 0% | Activity (HCT-116 [36]): 0% | viability at 0.1 µM (HCT-116 [37]): 73.3% | Activity (MCF7 [38]): Active | Activity (HCT-116 [39]): Active | Activity (MCF7 [40]): Active | Activity (HCT-116 [41]): Active | Activity (MCF7 [42]): Active | Activity (HCT-116 [43]): Active | Activity (MCF7 [44]): Active | Activity (HCT-116 [45]): Active | inhibition (Sus scrofa [20]): inactive
